According to patent publication US9839623B2, “Tricyclic compounds and methods of making and using same” (Zafgen, Inc., priority 2010, dated 2017):

Target: T1, recombinant human MetAP2 (Homo sapiens, UniProt P50579)
T1 construct: made in house; host or cells: Sf9 insect cells
Assay: Inhibition of recombinant human MetAP2 activity (MAS substrate, amino acid oxidase/Amplex red fluorescence)
Type: biochemical
Details: manganese enzyme, 30 minutes at 25° C., pH 7.5, 0.75 mM MAS substrate, 1% DMSO
Method: Compounds are tested for their capacity to inhibit recombinant human MetAP2 activity using the following assay.
Human recombinant MetAP2 expressed in Sf9 cells followed by affinity purification and EDTA treatment to remove endogenous active site cation was dialysed against MnCl2 to produce the manganese enzyme used in the assay. The assay was carried out for 30 minutes at 25° C. in 50 mM HEPES buffer containing 100 mM NaCl, pH 7.5 the presence of 0.75 mM Methionine-Alanine-Serine (MAS) substrate and 50 μg/mL amino acid oxidase using a dilution of purified MetAP2 giving >3-fold signal:noise. Cleavage of the substrate by MetAP2 and oxidation of free methionine by amino acid oxidase was detected and quantified using fluorescence generated by Amplex red (10-acetyl-3,7-dihydroxyphenoxazine) in combination with horseradish peroxidase which detects H2O2 released during the oxidation step. The fluorescent signal was detected using a multiwell fluorimeter. Compounds were diluted in DMSO prior to addition to assay buffer, the final DMSO concentration in the assay being 1%.
The IC50 is defined as the concentration at which a given compound achieves 50% inhibition of control. IC50 values are calculated using the XLfit software package (version 2.0.5).

T1 sequence (P50579 whole entry): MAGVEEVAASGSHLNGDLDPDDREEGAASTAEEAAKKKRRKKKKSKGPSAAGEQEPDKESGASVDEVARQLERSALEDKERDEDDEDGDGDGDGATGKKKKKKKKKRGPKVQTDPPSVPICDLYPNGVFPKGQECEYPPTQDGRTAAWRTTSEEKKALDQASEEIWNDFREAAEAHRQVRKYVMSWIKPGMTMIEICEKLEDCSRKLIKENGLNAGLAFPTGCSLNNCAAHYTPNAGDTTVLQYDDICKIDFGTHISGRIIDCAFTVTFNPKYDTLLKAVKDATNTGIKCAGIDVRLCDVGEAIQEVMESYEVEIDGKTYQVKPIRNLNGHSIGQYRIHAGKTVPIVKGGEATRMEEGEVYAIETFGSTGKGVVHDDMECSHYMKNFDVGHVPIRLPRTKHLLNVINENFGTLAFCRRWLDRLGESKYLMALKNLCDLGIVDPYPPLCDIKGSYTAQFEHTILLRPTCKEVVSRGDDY

SMILES | IC50 [nM]
CCN(CC)C/C=C\c1cc(F)ccc1S(=O)(=O)Cc1ccc2c(c1C(=O)O)OC(C)c1occc1-2 (racemic) [Example 15] | < 100
CCN(CC)C/C=C\c1cc(F)ccc1S(=O)(=O)Cc1ccc2c(c1C(=O)O)OC(C)c1occc1-2 (single isomer, unassigned) [Example 18A, 7-[2-((Z)-3-diethylaminoprop-1-enyl)-4-fluorobenzenesulfonylmethyl]-4-methyl-4H-furo[2,3-c]chromene-6-carboxylic Acid] | < 100
CCN(CC)C/C=C\c1cc(F)ccc1S(=O)(=O)Cc1ccc2c(c1C(=O)O)OC(C)c1occc1-2 (single isomer, unassigned) [Example 18B, 7-[2-((Z)-3-diethylaminoprop-1-enyl)-4-fluorobenzenesulfonylmethyl]-4-methyl-4H-furo[2,3-c]chromene-6-carboxylic Acid] | 100 to 1000
C[C@H]1Oc2c(ccc(CS(=O)(=O)c3ccccc3)c2C(=O)O)-c2ccoc21 (stereo in doubt) [Example 6, 7-(Benzenesulfonylmethyl)-4-methyl-4H-furo[2,3-c]chromene-6-carboxylic Acid] | < 100
O=C(O)c1c(CS(=O)(=O)c2ccccc2)ccc2c1OCc1occc1-2 [Example 2, 7-(Benzenesulfonylmethyl)-4H-furo[2,3-c]chromene-6-carboxylic Acid] | < 100
O=C(O)c1c(CS(=O)(=O)c2ccccc2)ccc2c1OCCc1occc1-2 [Example 3, 8-(Benzenesulfonylmethyl)-4,5-dihydro-3,6-dioxabenzo[e]azulene-7-carboxylic Acid] | 100 to 1000
O=C(O)c1c(CS(=O)(=O)c2ccccc2)ccc2c1ncc1occc12 [Example 4, 7-(Benzenesulfonylmethyl)-furo[2,3-c]quinoline-6-carboxylic Acid] | 100 to 1000
O=C(O)c1c(CS(=O)(=O)c2ccccc2)ccc2c1oc(=O)c1occc12 [Example 5, 7-(Benzenesulfonylmethyl)-4-oxo-4H-furo[2,3-c]chromene-6-carboxylic Acid] | 100 to 1000
CCN(CC)C/C=C\c1cc(F)ccc1S(=O)(=O)Nc1ccc2c(ncc3occc32)c1C(=O)O [Example 8, 7-[2-((Z)-3-Diethylaminoprop-1-enyl)-4-fluorobenzenesulfonylamino]-furo[2,3-c]quinoline-6-carboxylic Acid] | < 100
CCN(CC)C/C=C\c1cc(F)ccc1S(=O)(=O)Nc1ccc2c(oc(=O)c3occc32)c1C(=O)O [Example 14] | < 100
CCN(CC)CCCc1cc(F)ccc1S(=O)(=O)Nc1ccc2c(ncc3occc32)c1C(=O)O [Example 16, 7-[2-(3-Diethylaminopropyl)-4-fluorobenzenesulfonylamino]-furo[2,3-c]quinoline-6-carboxylic Acid] | < 100
CCN(CC)C/C=C\c1cc(F)ccc1S(=O)(=O)Nc1ccc2c([nH]c(=O)c3occc32)c1C(=O)O [Example 22, 7-[2-((Z)-3-Diethylaminoprop-1-enyl)-4-fluorobenzenesulfonylamino]-4-oxo-4,5-dihydrofuro[2,3-c]quinoline-6-carboxylic Acid] | < 100

Other lines, results leading:

IC50 [nM] | SMILES
< 100 | CCN(CC)C/C=C\c1cc(F)ccc1S(=O)(=O)Nc1ccc2c(c1C(=O)O)OCc1occc1-2 [Example 1, 7-[2-((Z)-3-Diethylaminoprop-1-enyl)-4-fluorobenzenesulfonylamino]-4H-furo[2,3-c]chromene-6-carboxylic Acid]
< 100 | CCN(CC)C/C=C\c1cc(F)ccc1S(=O)(=O)Nc1ccc2c(c1C(=O)O)OCCc1occc1-2 [Example 7, 8-[2-((Z)-3-Diethylaminoprop-1-enyl)-4-fluorobenzenesulfonylamino]-4,5-dihydro-3,6-dioxabenzo[e]azulene-7-carboxylic Acid]
< 100 | CCN(CC)CCCc1cc(F)ccc1S(=O)(=O)Nc1ccc2c(c1C(=O)O)OCc1occc1-2 [Example 9, 7-[2-(3-Diethylaminopropyl)-4-fluorobenzenesulfonylamino]-4H-furo[2,3-c]chromene-6-carboxylic Acid]
< 100 | CCNC/C=C\c1cc(F)ccc1S(=O)(=O)Nc1ccc2c(c1C(=O)O)OCc1occc1-2 [Example 10, 7-[2-((Z)-3-Ethylaminoprop-1-enyl)-4-fluorobenzenesulfonylamino]-4H-furo[2,3-c]chromene-6-carboxylic Acid]
< 100 | CCN(CC)CCCc1cc(F)ccc1S(=O)(=O)Nc1ccc2c(c1C(=O)O)OCCc1occc1-2 [Example 11, 8-[2-(3-Diethylaminopropyl)-4-fluorobenzenesulfonylamino]-4,5-dihydro-3,6-dioxabenzo[e]azulene-7-carboxylic Acid]
< 100 | O=C(O)c1c(NS(=O)(=O)c2ccc(F)cc2/C=C\CN2CCOCC2)ccc2c1OCc1occc1-2 [Example 12, 7-{4-Fluoro-2-[(Z)-3-(morpholin-4-yl)prop-1-enyl]benzenesulfonylamino}-4H-furo[2,3-c]chromene-6-carboxylic Acid]
< 100 | O=C(O)c1c(NS(=O)(=O)c2ccc(F)cc2/C=C\CN2CCCC2)ccc2c1OCc1occc1-2 [Example 13, 7-{4-Fluoro-2-[(Z)-3-(pyrrolidin-1-yl)prop-1-enyl]benzenesulfonylamino}-4H-furo[2,3-c]chromene-6-carboxylic Acid]
< 100 | CCN(CC)C/C=C\c1cc(F)ccc1S(=O)(=O)Nc1ccc2c(c1C(=O)O)OCc1cnsc1-2 [Example 17, 7-[2-((Z)-3-Diethylaminoprop-1-enyl)-4-fluorobenzenesulfonylamino]-4H-chromeno[3,4-d]isothiazole-6-carboxylic Acid]
< 100 | CCN(CC)C/C=C\c1ccccc1S(=O)(=O)Nc1ccc2c(c1C(=O)O)OCc1occc1-2 [Example 19]
< 100 | O=C(O)c1c(NS(=O)(=O)c2ccc(F)cc2/C=C\CN2CC[C@@H](O)C2)ccc2c1OCc1occc1-2 [Example 20, 7-{4-Fluoro-2-[(Z)-3-((R)-3-hydroxypyrrolidin-1-yl)-prop-1-enyl]-benzenesulfonylamino}-4H-furo[2,3-c]chromene-6-carboxylic Acid]
< 100 | O=C(O)c1c(NS(=O)(=O)c2ccc(F)cc2/C=C\CN2CC[C@H](O)C2)ccc2c1OCc1occc1-2 [Example 21, 7-{4-Fluoro-2-[(Z)-3-((S)-3-hydroxypyrrolidin-1-yl)-prop-1-enyl]-benzenesulfonylamino}-4H-furo[2,3-c]chromene-6-carboxylic Acid]
< 100 | O=C(O)c1c(NS(=O)(=O)c2ccc(F)cc2/C=C\CN2CCC2)ccc2c1OCc1occc1-2 [Example 23, 7-{2-[(Z)-3-(Azetidin-1-yl)prop-1-enyl]-4-fluorobenzenesulfonyl-amino}-4H-furo[2,3-c]chromene-6-carboxylic Acid]
< 100 | O=C(O)c1c(NS(=O)(=O)c2ccc(F)cc2/C=C\CN2CC(O)C2)ccc2c1OCc1occc1-2 [Example 24, 7-{4-Fluoro-2-[(Z)-3-(3-hydroxyazetidin-1-yl)-prop-1-enyl]-benzenesulfonylamino}-4H-furo[2,3-c]chromene-6-carboxylic Acid]
< 100 | CCN(CC)C/C=C\c1cc(F)ccc1S(=O)(=O)Nc1ccc2c(c1C(=O)O)OCc1occ(F)c1-2 [Example 25, 7-[2-((Z)-3-Diethylaminoprop-1-enyl)-4-fluorobenzenesulfonylamino]-1-fluoro-4H-furo[2,3-c]chromene-6-carboxylic Acid]
< 100 | CCN(CC)C/C=C/c1cc(F)ccc1S(=O)(=O)Nc1ccc2c(c1C(=O)O)OCc1occc1-2 [Example 26, 7-[2-((E)-3-Diethylaminoprop-1-enyl)-4-fluorobenzenesulfonylamino]-4H-furo[2,3-c]chromene-6-carboxylic Acid]
